# Data from patent US9656962B2, “Ring-contracted morphinans and the use thereof” (Purdue Pharma L.P., priority 2013, dated 2017).
# What was measured:
# [1] = biological target: human opioid receptor-like receptor (ORL-1) (Homo sapiens (Human), UniProt P41146); test: ORL-1 receptor radioligand binding assay ([3H]-nociceptin); details: binding affinity, bound given in μM, read-out: Ki ORL-1
# Procedure: ORL-1 Receptor Binding Assay Procedure: Membranes from recombinant HEK-293 cells expressing the human opioid receptor-like receptor (ORL-1) (Perkin Elmer, Shelton, Conn.) was prepared by lysing cells in ice-cold hypotonic buffer (2.5 mM MgCl2, 50 mM HEPES, pH 7.4) (10 ml/10 cm dish) followed by homogenization with a tissue grinder/Teflon pestle. Membranes were collected by centrifugation at 30,000×g for 15 min at 4° C. and pellets resuspended in hypotonic buffer to a final concentration of 1-3 mg/ml. Protein concentrations were determined using the BioRad protein assay reagent with bovine serum albumen as standard. Aliquots of the ORL-1 receptor membranes were stored at −80° C.
# Radioligand binding assays (screening and dose-displacement) use 0.1 nM [^3H]-nociceptin (Perkin Elmer, Shelton, Conn.; 87.7 Ci/mmole) with 12 μg membrane protein in a final volume of 500 μl binding buffer (10 mM MgCl2, 1 mM EDTA, 5% DMSO, 50 mM HEPES, pH 7.4). Non-specific binding was determined in the presence of […] unlabeled nociceptin (American Peptide Company). […] Fifty μl/well scintillation cocktail (Perkin Elmer, Shelton, Conn.) was added and plates are counted in a Packard Top-Count for 1 min/well. The data from screening and dose-displacement experiments were analyzed using Microsoft Excel and the curve fitting functions in GraphPad PRISM™, v. […]
# [2] = biological target: T1, μ-opioid receptor (Homo sapiens (Human), UniProt P35372); test: μ-opioid receptor [35S]GTPγS functional assay, U-2 OS cells (Table 5); format: biochemical
# In short: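 Membranes (0.026 mg/mL) from cells expressing recombinant human μ-opioid receptor in a U-2 OS background were incubated with 0.20 nM [35S]GTPγS, 3 mM GDP and saponin in 20 mM HEPES pH 7.4, 100 mM NaCl, 10 mM MgCl2 for 30 min at about 25 °C. Filter-bound radioactivity counted; sigmoidal dose-response fits gave values, Emax relative to DAMGO.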
# [3] = biological target: T1, μ-opioid receptor; test: μ-opioid receptor [35S]GTPγS functional assay, HEK-293 or CHO cells (Table 4); format: biochemical
# In short: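 Membranes from HEK-293, CHO or U-2 OS cells (or commercial) expressing recombinant μ receptor; 0.20 nM [35S]GTPγS, 3 mM GDP, saponin, in 100 mM NaCl/10 mM MgCl2/20 mM HEPES pH 7.4.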
# [4] = biological target: T1, μ-opioid receptor; test: μ-opioid receptor radioligand binding assay ([3H]-diprenorphine); details: binding affinity
# Procedure: μ-Opioid Receptor Binding Assay Procedures: Radioligand dose-displacement binding assays for μ-opioid receptors used 0.3 nM [^3H]-diprenorphine (Perkin Elmer, Shelton, Conn.), with […] membrane protein/well in a final volume of 500 μl binding buffer (10 mM MgCl2, 1 mM EDTA, 5% DMSO, 50 mM HEPES, pH 7.4). Reactions were carried out in the absence or presence of increasing concentrations of unlabeled naloxone. All reactions were conducted in 96-deep well polypropylene plates for 2 hours at room temperature. Binding reactions were terminated by rapid filtration onto 96-well Unifilter GF/C filter plates (Perkin Elmer, Shelton, Conn.), presoaked in 0.5% polyethylenimine using a 96-well tissue harvester (Perkin Elmer, Shelton, Conn.) followed by performing three filtration washes with 500 μl of ice-cold binding buffer. Filter plates were subsequently dried at 50° C. for 2-3 hours. BetaScint scintillation cocktail (Perkin Elmer, Shelton, Conn.) was added (50 μl/well), and plates were counted using a Packard Top-Count for 1 min/well. The data were analyzed using the one-site competition curve fitting functions in GraphPad PRISM™ v. 3.0 or higher (San Diego, Calif.), or an in-house function for one-site competition curve-fitting.
smiles,measurement,setting,value
"NC(=O)[C@@H]1C[C@]23CCN(CC4CC4)[C@H](Cc4ccc(O)cc42)[C@]3(O)C1 [Compound 31, (2R,3aS,4R,9bS)-12-(cyclopropylmethyl)-3a,8-dihydroxy-1,2,3,3a,4,5-hexahydro-4,9b-(epiminoethano)cyclopenta-[a]naphthalene-2-carboxamide]",Ki,[1],> 20 µM
same,Emax,[2]; relative to DAMGO,49 ± 3.76%
same,EC50,[2]; μ GTP,2.35 ± 0.32 nM
same,Emax,[3]; relative to DAMGO,1%
same,EC50,"[3]; μ GTP, bound given in μM",> 20 µM
same,Ki,[4],10.2 ± 3.58 nM
